In patent publication US12358921B2, “Antiviral heterocyclic compounds” (priority 2022, dated 2025):

Key:
[1] = system: HUMAN RSV-A (“LONG” STRAIN); experiment: RSV-A assay (CPE, ATPlite) in Hep-2 cells; format: cell-based; details: human respiratory syncytial virus, 120 h, MOI 0.1, 5-day incubation
Summary of the method: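 Protection from RSV cytopathic effect read by ATP luminescence (ATPlite) after 5-day culture. Genotype A "Long" virus added at MOI 0.1 to Hep-2 monolayers at 8,000 cells/well, pre-dosed with duplicate 2-fold compound dilutions; controls include infected untreated and uninfected wells. EC50 values binned into ranges.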

hMPV A2 TN/94-49 [2] = experiment: HMPV antiviral assay Method 1 (LLC-MK2 cells, ATP-Lite); format: cell-based; details: hMPV A2 TN/94-49, LLC-MK2 cells
Summary of the method: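 LLC-MK2 cells infected in suspension with hMPV A2 TN/94-49 at MOI 0.005, 5,000 cells/well, in serum-free OptiMEM with 2 μg/mL TPCK-trypsin (final) and CaCl2; compounds in duplicate, 10 points, 2 μM top, 2.5-fold dilutions. After 7 days at 37 °C, cell health by ATP-Lite luminescence; EC50 by four-parameter fit.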

hMPV A2 TN/94-49 [3] = experiment: HMPV antiviral assay Method 2 (LLC-MK2 cells with CP-100-356, ATP-Lite); format: cell-based; details: hMPV A2 TN/94-49, LLC-MK2 cells, 4 μM CP-100-356, Method 2
Summary of the method: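 The protective effect was measured after 7 days at 37 °C by ATP-Lite luminescence and expressed as % cell health relative to virus-only and cells-only wells, with EC50 from a four-parameter logistic. Cells were LLC-MK2 infected with strain A2 TN/94-49 (MOI 0.16) with final 2 μM CP-100-356 and 2 μg/mL TPCK-trypsin; 10 duplicate concentrations from 200 nM, 2.5-fold steps.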

HRSV = details: prophylactic use, high risk infants; cited from earlier work

Row | Compound | EC50 [1] [nM] | EC50 (hMPV A2 TN/94-49 [2]) [nM] | EC50 (hMPV A2 TN/94-49 [3]) [nM] | effective in reducing hospitalizations (HRSV) [%]
1 | COc1cc(C(=O)NC[C@@](O)(c2cccc(F)c2)c2cc3c(c(-c4cc(C(F)(F)F)c(F)cc4F)n2)OC[C@]3(C)C(N)=O)cc2cn(C3CC3)nc12 [Example 295] | < 200 | < 500 | < 200 | 
2 | COc1cc(C(=O)NC[C@@](O)(c2cccc(F)c2)c2cc3c(c(-c4cc(C(F)(F)F)c(F)cc4F)n2)OC[C@]3(C)C(N)=O)cc2cn(C3(F)CC3)nc12 [Example 296] | < 200 | < 500 | < 200 | 
3 | COc1cc(C(=O)NC[C@@](O)(c2cccc(F)c2)c2cc3c(c(-c4cc(C(F)(F)F)c(F)cc4F)n2)OC[C@]3(C)C(N)=O)cc2oc(C3CC3)nc12 [Example 297] | < 200 | < 500 | < 200 | 
4 | COc1cc(C(=O)NC[C@@](O)(c2ccccc2)c2cc3c(c(-c4cc(C(F)F)c(F)cc4F)n2)OC[C@]3(C)C(N)=O)cc2cn(C3(F)CC3)nc12 [Example 298] | < 200 | < 500 | < 200 | 
5 | COc1cc(C(=O)NC[C@@](O)(c2ccccc2)c2cc3c(c(-c4cc(C(F)F)c(F)cc4F)n2)OC[C@]3(C)C(N)=O)cc2oc(C3CC3)nc12 [Example 299] | < 200 | < 500 | < 200 | 
6 | COc1cc(C(=O)NC[C@@](O)(c2ccccn2)c2cc3c(c(-c4cc(Cl)c(F)cc4F)n2)OC[C@]3(C)C(N)=O)cc2cn(C3CC3)nc12 [Example 463] | < 200 | < 500 | < 200 | 
7 | COc1cc(C(=O)NCC(O)(c2cc3c(c(-c4cc(Cl)c(F)cc4F)n2)OC[C@]3(C)C(N)=O)c2cc(C(F)F)cs2)cc2cn(C3CC3)nc12 (stereo partly shown) [Example 468] | < 200 | > 500 | < 200 | 
8 | COc1cc(C(=O)NCC(O)(c2cc3c(c(-c4cc(Cl)c(F)cc4F)n2)OC[C@]3(C)C(N)=O)c2ccc(C)s2)cc2cn(C3CC3)nc12 (stereo partly shown) [Example 470] | < 200 | < 500 | < 200 | 
9 | COc1cc(C(=O)NC[C@](O)(c2cc3c(c(-c4cc(Cl)c(F)cc4F)n2)OC[C@]3(C)C(N)=O)c2cccs2)cc2cn(C3CC3)nc12 [Example 474] | < 200 | < 500 | < 200 | 
10 | COc1cc(C(=O)NC[C@](O)(c2cc3c(c(-c4cc(Cl)c(F)cc4F)n2)OC[C@]3(C)C(N)=O)c2nccs2)cc2cn(C3CC3)nc12 [Example 475] | < 200 | < 500 | < 200 | 
11 | Palivizumab |  |  |  | 60
